Structures are written as SMILES. Where “and” joins values, the source holds several entries; their conditions need not be identical. Equal values may be shown once.

Broadly, the melting point is the temperature, or range, at which the solid turns liquid.

Turning to `CCCCCCC(C)=O` [2-octanone], the melting point is -16 °C.

Turning to `O=C(O)c1c(F)c(F)c(F)c(F)c1F` [pentafluorobenzoic acid], the melting point turned out to be 102 °C.

`Nc1ccc(C(F)(F)F)cc1Br` [2-bromo-4-(trifluoromethyl)aniline]: the melting point is 30 °C.

In turn, `C#C[C@]1(O)CC[C@H]2[C@@H]3CCc4cc(O)ccc4[C@H]3CC[C@@]21C` [Ethinyl Estradiol] registered a melting point of 183 °C.

Take `CCCCB(CCCC)CCCC` [tri-n-butylborane]: the melting point is -34 °C.

`Cc1occc(=O)c1O` [3-hydroxy-2-methyl-4-pyrone]: the melting point turned out to be 163 °C.

In the case of `COc1c(B(O)O)cccc1C(=O)O` [3-(Dihydroxyboryl)-2-methoxybenzoic acid], the melting point was 157 °C.

`Cc1c(N)cccc1Cl` [3-chloro-2-methylaniline] showed a melting point of 2 °C.

`O=C(O[C@@H]1[C@H]3C(=C/[C@H](C)C1)\C=C/[C@@H]([C@@H]3CC[C@H]2OC(=O)C[C@H](O)C2)C)[C@@H](C)CC` [lovastatin] showed a melting point of 174 °C.

`COC(=O)c1cc(OC)c(OC)c(OC)c1` [methyl_3,4,5-trimethoxybenzoate] yielded a melting point of 84 °C.

For `Cc1ccc(CCl)cc1` [4-methylbenzyl chloride], the melting point amounted to 5 °C.

`O=C(O)COc1ccccc1[N+](=O)[O-]` [2-nitrophenoxyacetic acid] showed a melting point of 158 °C.

`OCC(O)CO` [glycerol] had a melting point of 18 °C.

Turning to `C[C@H](NC(=O)OCc1ccccc1)C(=O)O` [N-benzyloxycarbonyl-l-alanine], the melting point is 85 °C.

`CC(=O)OCC(OC(C)=O)C(OC(C)=O)C(OC(C)=O)C(OC(C)=O)C(=O)CBr` (centres undefined) [3,4,5,6,7-penta-O-acetyl-1-bromo-1-deoxyhept-2-ulose] yielded a melting point of 124 °C.

As to `O=C(O)c1cc(F)c(F)c(F)c1F` [2,3,4,5-tetrafluorobenzoic acid], the melting point worked out at 86 °C.

In the case of `Nc1cccc(N)n1` [2,6-diaminopyridine], the melting point was determined as 122 °C.

Consider `Nc1c(Br)cc(Br)cc1[N+](=O)[O-]` [2,4-dibromo-6-nitroaniline], for which the melting point was found to be 130 °C.

As to `O=[N+]([O-])c1ccccc1CCl` [2-nitrobenzyl_chloride], the melting point was found to be 48 °C.

Turning to `Cc1ccccc1OCC(=O)O` [2-methylphenoxyacetic acid], the melting point stood at 154 °C.

In turn, `Cc1cc(O)cc(C)c1Cl` [4-Chloro-3,5-dimethylphenol] registered a melting point of 115 °C.

As to `CCCCC1C(=O)N(c2ccccc2)N(c2ccccc2)C1=O` [phenylbutazone], the melting point turned out to be 105 °C.

With `CCCCCO` [1-pentanol], the melting point was -78 °C.

`CCCCCCCCCCCCCCC` [N-pentadecane]: the melting point amounted to 10 °C.

`C[N+](C)(C)C[C@H](O)CC(=O)[O-]` [L-Carnitine] returned a melting point of 196 °C.

Molecule `N#Cc1cccc(C#N)c1` [isophthalonitrile] registered a melting point of 161 °C.

`N=C(N)NC(N)=S` [N-amidinothiourea] registered a melting point of 164 °C.

The molecule `CCOC(=O)C1=CN=NC1C` (centres undefined) [ethyl 3-methyl-1H-pyrazole-4-carboxylate] returned a melting point of 137 °C.

In turn, `CCC(C)c1ccccc1O` (centres undefined) [2-sec-Butylphenol] gave a melting point of 12 °C.

`OB(O)c1cc(F)ccc1OCc1ccccc1` [2-benzyloxy-5-fluorobenzeneboronic acid]: the melting point turned out to be 119 °C.

Turning to `c1ccc([Si](c2ccccc2)(c2ccccc2)[Si](c2ccccc2)(c2ccccc2)c2ccccc2)cc1` [hexaphenyldisilane], the melting point was 369 °C.

`CC(=O)[C@H]1CC[C@H]2[C@@H]3CCC4=CC(=O)CC[C@]4(C)[C@H]3CC[C@]12C` [Progesterone]: the melting point was determined as 130 °C.

`NC(=O)N[C@@H]1O[C@H](CO)[C@@H](O)[C@H](O)[C@H]1O` [N-Carbamoyl-beta-D-glucopyranosylamine] returned a melting point of 207 °C.

`OB(O)c1cc2ccccc2nc1Cl` [2-chloroquinoline-3-boronic acid] gave a melting point of 146 °C.

`OCCCCCCCCCO` [1,9-nonanediol] gave a melting point of 47 °C.

Molecule `CC(=O)Nc1ccc(O)cc1` [paracetamol] came in with a melting point of 169 °C.

Consider `c1cc2c3c(cccc3c1)CC2` [1,2-Dihydroacenaphthylene], for which the melting point stood at 95 °C.

Molecule `NC(=O)NNc1ccccc1` [1-phenylsemicarbazide] registered a melting point of 172 °C.

For `COC(=O)c1ccccc1` [methyl benzoate], the melting point was -12 °C.

In the case of `OB(O)c1ccccc1OCc1ccccc1` [2-benzyloxybenzeneboronic acid], the melting point amounted to 98 °C.

In turn, `CC(=O)Nc1ccc(O)cc1` [Acetaminophen] registered a melting point of 170 °C.

The molecule `COc1ccc(C(C)=O)cc1` [4'-methoxyacetophenone] came in with a melting point of 38 °C.

Consider `O=C1CCCC1` [cyclopentanone], for which the melting point was -51 °C.

For the molecule `O=C(O)/C=C/c1ccccc1` [trans-cinnamic acid], the melting point came to 135 °C.

For the molecule `O=C(O)C1CCN(C(=O)CCl)CC1` [N-chloroacetylisonipecotic acid], the melting point came to 110 °C.

The molecule `CC(=O)Oc1c(-c2ccccc2)n(C(C)=O)c2cc([N+](=O)[O-])c(/C(Cl)=C/c3ccccc3)cc12` gave a melting point of 58 °C.

As to `CCCCCCCCCC(=O)O` [decanoic acid], the melting point turned out to be 31 °C.

For `O=C(Oc1ccccc1)c1ccccc1` [phenyl benzoate], the melting point worked out at 69 °C.

As to `CCCOC(=O)c1ccc(O)cc1` [N-propyl 4-hydroxybenzoate], the melting point turned out to be 97 °C.

With `Cc1cc(CO)nn1C` [1H-pyrazole-3-methanol, 1,5-dimethyl-], the melting point was determined as 41 °C.

In turn, `CC(=O)c1ccc(F)c(Cl)c1` [3'-chloro-4'-fluoroacetophenone] registered a melting point of 39 °C.

`OB(O)c1ccccc1Cl` [2-chlorobenzeneboronic acid] displayed a melting point of 98 °C.

Consider `CC(=O)OCC1OC(C#N)=CC(OC(C)=O)C1OC(C)=O` (centres undefined), for which the melting point amounted to 114 °C.

For `Nc1ccc(S(=O)(=O)Nc2ncccn2)cc1` [Sulfadiazine], the melting point came to 259 °C.

As to `OCc1ccc(O)cc1` [4-hydroxybenzyl alcohol], the melting point was 118 °C.

Consider `CCOc1ccccc1` [phenetole], for which the melting point was -30 °C.

For the molecule `CC(=O)Nc1ccc(C=O)cc1` [4-acetamidobenzaldehyde], the melting point is 160 °C.

In turn, `CCCCCCCCCC(C)=O` [2-undecanone] returned a melting point of 13 °C.

Take `CO` [methanol]: the melting point was -98 °C (6×) and -97.5 °C.

For `BrCCCCBr` [1,4-dibromobutane], the melting point is -20 °C.

For `COc1cc(C(C)=O)cc(OC)c1O` [3',5'-dimethoxy-4'-hydroxyacetophenone], the melting point stood at 119 °C.

For `C1=CC2CCC1C2` [norbornene], the melting point turned out to be 46 °C.

The molecule `CC12CCC(=O)C=C1CCC1C2C(O)CC2(C)C1CCC2(O)C(=O)CO` (centres undefined) [hydrocortisone] gave a melting point of 223 °C.

Molecule `Cc1ccc(C2(O)CCN(CCCC(=O)c3ccc(F)cc3)CC2)cc1` [moperone] displayed a melting point of 118 °C.

For `c1cc(C2CNCCN2)cs1` (centres undefined) [2-(3-thienyl)piperazine], the melting point came out at 98 °C.

For `c1ccc(CNCc2ccccc2)cc1` [dibenzylamine], the melting point was -26 °C.

Turning to `O=C(O)/C=C/c1cccc(Br)c1` [trans-3-bromocinnamic acid], the melting point was determined as 180 °C.

As to `Cc1c(C)c(C)c2c(c1C)CC2=O` [2,3,4,5-Tetramethylbicyclo(4.2.0)octa-1,3,5-trien-7-one], the melting point turned out to be 161 °C.

`CC(=O)Nc1ccc(O)cc1` [acetaminophen] came in with a melting point of 170 °C.

`C[C@@H]1[C@H](O)[C@@H](C)C=CC=CC=CC=CC=CC=CC=C[C@H](O[C@@H]2O[C@H](C)[C@@H](O)[C@H](N)[C@@H]2O)C[C@@H]2O[C@](O)(C[C@@H](O)C[C@@H](O)[C@H](O)CC[C@@H](O)C[C@@H](O)CC(=O)O[C@H]1C)C[C@H](O)[C@H]2C(=O)O` [Amphotericin B] showed a melting point of 170 °C.

In turn, `CCCCCCCCCCOc1ccc(C(=O)O)cc1` [4-n-decyloxybenzoic acid] had a melting point of 97 °C.

As for `COc1ccc(-c2cc(=O)c3c(O)c(OC)c(O)cc3o2)cc1` [5,7-Dihydroxy-6-methoxy-2-(4-methoxyphenyl)-4H-chromen-4-one], the melting point was determined as 225 °C.

`CCOC(=O)C12C(c3ccccc3O[P+]1([O-])OCC)C1(C(=O)OCC)C2c2ccccc2O[P+]1([O-])OCC` (centres undefined) came in with a melting point of 218 °C.

Molecule `CC(C)c1ccc(/C=C/[N+](=O)[O-])cc1` [4-isopropyl-beta-nitrostyrene] displayed a melting point of 37 °C.

In the case of `C=C(C)C(=C)C` [2,3-dimethyl-1,3-butadiene], the melting point is -76 °C.

Molecule `Sc1nnc2ccccn12` [1,2,4-triazolo[4,3-a]pyridine-3-thiol] yielded a melting point of 210 °C.

As for `OC(c1ccccc1)(c1ccccc1)c1ccccc1` [triphenylmethanol], the melting point stood at 163 °C.

`O=C(O)C[C@@H](O)C(=O)O` [D-malic acid] registered a melting point of 102 °C.

`CC(=O)OC1CCC2(C)C(CCC3C2CCC2(C)C3CCC2(O)CCc2ccccc2)C1` (centres undefined) [17-hydroxy-21-phenylpregnan-3-yl acetate] displayed a melting point of 138 °C.

The molecule `Nc1n[nH]c(-c2ccccc2)c1Br` [3-amino-4-bromo-5-phenyl-1h-pyrazole] gave a melting point of 114 °C.

On to `CCCCC(CC)COC(=O)CCCCC(=O)OCC(CC)CCCC` (centres undefined) [bis(2-ethylhexyl) adipate], for which the melting point is -67 °C.

`CN(C)CC(=O)O` [Dimethylglycine] had a melting point of 186 °C.

As for `CN(C)[C@@H]1C(O)=C(C(N)=O)C(=O)[C@@]2(O)C(O)=C3C(=O)c4c(O)ccc(Cl)c4[C@@](C)(O)[C@H]3C[C@@H]12` [chlortetracycline], the melting point came out at 168 °C.

Molecule `Sc1ccc(Br)cc1` [4-bromothiophenol] showed a melting point of 75 °C.

The values are drawn from the Bradley open melting point set (2014).
